Measurements as given in patent US11607414B2, “Small molecule inhibitors of EGFR and PI3K” (The Regents of the University of Michigan, priority 2014, dated 2023).

Assays:
EGFR = EGFR (Homo sapiens, UniProt P00533); experiment: Z'-LYTE biochemical kinase assay, EGFR; conditions: read-out: potency against EGFR
Description: Various compounds were tested for their ability to inhibit EGFR and PIK3CA. The assays determining inhibitions are given in Example 2 Assays-Z′-LYTE® and ADAPTA.
Assays: The Z′-LYTE® biochemical assay employs a fluorescence-based, coupled-enzyme format and is based on the differential sensitivity of phosphorylated and non-phosphorylated peptides to proteolytic cleavage (FIG. 6). The peptide substrate is labeled with two fluorophores—one at each end— that make up a FRET pair. In the primary reaction, the kinase transfers the gamma-phosphate of ATP to a single tyrosine, serine or threonine residue in a synthetic FRET-peptide. […] A ratiometric method, which calculates the ratio (the Emission Ratio) of donor emission to acceptor emission after excitation of the donor fluorophore at 400 nm, is used to quantitate reaction progress.
A significant benefit of this ratiometric method for quantitating reaction progress is the elimination of well-to-well variations in FRET-peptide concentration and signal intensities. […]
Both cleaved and uncleaved FRET-peptides contribute to the fluorescence signals and therefore to the Emission Ratio. The extent of phosphorylation of the FRET-peptide can be calculated from the Emission Ratio. […]
Bar-coded Corning, low volume NBS, black 384-well plate (Corning Cat. 4514) 1. […] Read on fluorescence plate reader and analyze the data.

[1] = tested on: phosphorylation of AKT in HCT-116 tumors; experiment: In vivo pharmacodynamics in subcutaneous HCT-116 tumors, pAKT; conditions: intraperitoneal 100 mg/kg
Source text: (§1) However, additional synthesis of MOL-162 is needed to allow a full pharmacodynamic time course study to be carried out to determine the maximal degree of target inhibition of both targets after single and repeated daily dosing.

[2] = tested on: phosphorylation of EGFR in HCT-116 tumors; experiment: In vivo pharmacodynamics in subcutaneous HCT-116 tumors, pEGFR; conditions: intraperitoneal 100 mg/kg
Source text: as §1

[3] = molecular target: panel of 39 kinases (tyrosine, serine/threonine and lipid kinases); experiment: Broad panel of 39 kinases at 10 μM; type: biochemical
Source text: Numerous hits were designed with nanomolar potency against EGFR and PIK3CA. […] A structure-activity relationship was shown for these agents against both of the biochemical targets.

HCT-116 xenografts = experiment: Xenograft study, HCT-116; type: in vivo, NCR nude mice; conditions: higher dose (100 mg/kg), daily for 10 days, oral
Source text: (§2) FIGS. 8A, 8B, 8C, 8D, and 8E show in vivo efficacy of MOL-201 against, HCT-116, A431, COL-205, SK-MEL5 and MDA-MB-468 xenografts. […] The method is outlined in Example 2—Xenograft Studies.
(§3) Female 6-7 week old NCR nude mice (CrTac:NCr-Foxn1nu from Taconic), 6-7 weeks old, were implanted subcutaneously with 1×10^6 to 1×10^7 cells in a 1:1 serum-free media/Matrigel® mixture into the region of the right axilla. Mice were randomized into treatment groups and treatments initiated when tumors reached 100 to 200 mg. MTX-201 was administered daily for 10 days by oral gavage as a clear yellow solution in 5% DMSO/95% PEG300, based upon individual animal body weight (0.2 ml/20 g). Subcutaneous tumor volume and body weights were measured two to three times a week. Tumor volumes were calculated by measuring two perpendicular diameters with calipers and using the formula: tumor volume=(length×width2)/2. Mice were held following cessation of treatment until tumor burdens reached −1000 mg, to allow for calculation of tumor growth delay. Percent treated/control (% T/C) was calculated by dividing the median treated tumor weight by the median control tumor weight and multiplying by 100 on the last day of treatment. Tumor growth delay (T-C) was calculated by subtracting the median time to reach evaluation size (750 mg) of the treated group by the median time to evaluation size of the control group. […]

NCI-60 cell panel = experiment: NCI-60 COMPARE panel, one-dose % growth; type: cell-based, human; conditions: 10 μM
Description: The method is outlined in Example 2—NCI COMPARE Panel.
The human tumor cell lines of the cancer screening panel are grown in RPMI 1640 medium containing 5% fetal bovine serum and 2 mM L-glutamine. For a typical screening experiment, cells are inoculated into 96 well microtiter plates in 100 μL at plating densities ranging from 5,000 to 40,000 cells/well depending on the doubling time of individual cell lines. After cell inoculation, the microtiter plates are incubated at 37° C., 5% CO2, 95% air and 100% relative humidity for 24 h prior to addition of experimental drugs. […]
Following drug addition, the plates are incubated for an additional 48 h at 37° C., 5% CO2, 95% air, and 100% relative humidity. […] Bound stain is subsequently solubilized with 10 mM trizma base, and the absorbance is read on an automated plate reader at a wavelength of 515 nm. […] Using the seven absorbance measurements [time zero, (Tz), control growth, (C), and test growth in the presence of drug at the five concentration levels (Ti)], the percentage growth is calculated at each of the drug concentrations levels. Percentage growth inhibition is calculated as: [(Ti−Tz)/(C−Tz)]×100 for concentrations for which Ti>/=Tz [(Ti−Tz)/Tz]×100 for concentrations for which Ti<Tz. […]

[4] = Tolerability in xenograft-bearing mice; type: in vivo; conditions: oral, daily for 10 days at 20 and 100 mg/kg
Source text: as §2, §3

A431 xenografts = experiment: Xenograft study, A431; type: in vivo, NCR nude mice; conditions: higher dose (100 mg/kg), daily for 10 days, oral
Source text: as §2, §3

COL-205 xenografts = experiment: Xenograft study, COL-205; type: in vivo, NCR nude mice; conditions: higher dose (100 mg/kg), daily for 10 days, oral
Source text: as §2, §3

[5] = tested on: HCT-116, A431, COL-205, SK-MEL5 and MDA-MB-468 xenografts; experiment: Xenograft studies, model not stated for the lower dose; type: in vivo, NCR nude mice; conditions: lower dose of 20 mg/kg
Source text: as §2, §3

SK-MEL5 xenografts = experiment: Xenograft study, SK-MEL5; type: in vivo, NCR nude mice; conditions: higher dose (100 mg/kg), daily for 10 days, oral
Source text: as §2, §3

Chain of EGFR (P00533 25-1210): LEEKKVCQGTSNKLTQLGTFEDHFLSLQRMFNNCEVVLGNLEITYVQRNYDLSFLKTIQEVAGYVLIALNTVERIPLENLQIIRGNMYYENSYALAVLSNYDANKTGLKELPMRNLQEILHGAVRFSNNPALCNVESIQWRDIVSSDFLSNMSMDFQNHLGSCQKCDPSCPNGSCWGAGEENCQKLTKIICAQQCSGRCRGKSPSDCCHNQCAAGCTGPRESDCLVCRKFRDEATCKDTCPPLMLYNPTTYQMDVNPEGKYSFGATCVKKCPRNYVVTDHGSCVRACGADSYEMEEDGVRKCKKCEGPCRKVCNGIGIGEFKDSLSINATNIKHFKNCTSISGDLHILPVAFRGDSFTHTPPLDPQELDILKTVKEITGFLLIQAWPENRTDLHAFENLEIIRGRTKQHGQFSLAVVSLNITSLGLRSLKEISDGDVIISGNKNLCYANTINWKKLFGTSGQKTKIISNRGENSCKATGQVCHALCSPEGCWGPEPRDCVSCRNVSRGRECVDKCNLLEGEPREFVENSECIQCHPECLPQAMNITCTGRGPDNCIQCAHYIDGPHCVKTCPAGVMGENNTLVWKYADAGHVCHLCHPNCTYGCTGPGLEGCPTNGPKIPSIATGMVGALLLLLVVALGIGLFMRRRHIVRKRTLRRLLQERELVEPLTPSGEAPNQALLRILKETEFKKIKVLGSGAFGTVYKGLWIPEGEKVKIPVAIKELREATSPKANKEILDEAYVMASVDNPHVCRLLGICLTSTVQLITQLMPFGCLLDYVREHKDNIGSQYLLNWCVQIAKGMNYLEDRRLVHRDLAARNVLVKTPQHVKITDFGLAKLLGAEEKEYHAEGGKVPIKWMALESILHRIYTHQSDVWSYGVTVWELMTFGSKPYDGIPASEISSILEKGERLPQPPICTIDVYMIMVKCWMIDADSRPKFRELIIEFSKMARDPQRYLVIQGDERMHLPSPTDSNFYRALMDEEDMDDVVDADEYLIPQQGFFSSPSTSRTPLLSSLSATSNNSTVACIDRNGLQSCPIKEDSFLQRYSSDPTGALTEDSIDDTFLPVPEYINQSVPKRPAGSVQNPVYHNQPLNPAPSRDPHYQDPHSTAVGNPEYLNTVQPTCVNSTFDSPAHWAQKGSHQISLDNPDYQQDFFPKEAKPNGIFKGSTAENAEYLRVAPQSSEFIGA

IC50 (EGFR) [nM] | kinase profile (in words) [3] | Structure (SMILES) | inhibition of pAKT in tumors [1] | inhibition of pEGFR in tumors [2] | anti-tumor activity (T/C and T-C) (HCT-116 xenografts) | % growth in NCI-60 panel (in words) (NCI-60 cell panel) | tolerability [4] | anti-tumor activity (T/C and T-C) (A431 xenografts) | anti-tumor activity (T/C and T-C) (COL-205 xenografts) | anti-tumor activity [5] | anti-tumor activity (T/C and T-C) (SK-MEL5 xenografts)
349 | clean kinase profile | COc1ccc(Nc2ncnc3ccc(-c4cncc(NS(C)(=O)=O)c4)cc23)cc1Cl [MOL-153, N-(5-(4-((3-chloro-4-methoxyphenyl)amino)quinazolin-6-yl)pyridin-3-yl)methanesulfonamide] | inhibition of pAKT | not detected | – | – | – | – | – | – | –
– | – | CS(=O)(=O)Nc1cc(-c2ccc3ncnc(Nc4cccc(Cl)c4)c3c2)cnc1Cl [MOL-201, N-(2-chloro-5-(4-((3-chlorophenyl)amino)quinazolin-6-yl)pyridin-3-yl)methanesulfonamide] | – | – | Anti-tumor activity observed | broad cell kill | well tolerated by mice with no clinical observations of toxicity | Anti-tumor activity observed | Anti-tumor activity observed | elicited anti-tumor activity | Anti-tumor activity observed
